In the supplement of paper PMC11061612:

Key:
[1] = test system: SKN (Other Solid Carcinomas); test: Bliss excess, mean over the matrix (fraction); higher = more synergy
How it was run: (§1)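 Cell lines in DMEM/F12 or RPMI with 10% FBS were plated in 1536-well plates, held 24 hours at 37°C, 5% CO2, then given two-drug dose matrices for 72 hours (DMSO typically 0.2%). Viability was read by CellTiter-Glo 2.0 luminescence and scaled as inhibition from 0 (vehicle wells) to 1 (blank wells). Combination Emax is the second-highest inhibition in the matrix; Bliss excess is observed combination effect minus expected EA + EB − EA·EB, EA and EB being single-agent effects.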

[2] = test system: SW872 (Other Solid Carcinomas); test: combination Emax (second highest fraction inhibited in the dose matrix, 72 h); higher = more inhibition; extreme values may be limits of the assay
How it was run: as §1

[3] = test system: COLO-668 (Small Cell Lung Carcinoma); test: as above
How it was run: as §1

[4] = test system: G-401 (Other Solid Carcinomas); test: as above
How it was run: as §1

[5] = test system: NCI-H1355 (Lung Adenocarcinoma); test: as above
How it was run: as §1

[6] = test system: SNU-387 (Hepatocellular Carcinoma); test: as above
How it was run: as §1

[7] = test system: DU-145 (Prostate Carcinoma); test: as above
How it was run: as §1

[8] = test system: NCI-H1838 (Lung Adenocarcinoma); test: as above
How it was run: as §1

[9] = test system: SW982 (Other Solid Carcinomas); test: as above
How it was run: as §1

[10] = test system: SKN (Other Solid Carcinomas); test: as above
How it was run: as §1

[11] = test system: EFO-21 (Ovarian Carcinoma); test: as above
How it was run: as §1

[12] = test system: MOG-G-UVW (Low Grade Glioma); test: as above
How it was run: as §1

[13] = test system: NCI-H650 (Lung Adenocarcinoma); test: as above
How it was run: as §1

[14] = test system: CADO-ES1 (Ewing's Sarcoma); test: as above
How it was run: as §1

[15] = test system: KMRC-1 (Kidney Carcinoma); test: as above
How it was run: as §1

[16] = test system: NCI-H2122 (Lung Adenocarcinoma); test: as above
How it was run: as §1

[17] = test system: LC-1-sq (Squamous Cell Lung Carcinoma); test: as above
How it was run: as §1

[18] = test system: HCC1937 (Breast Carcinoma); test: as above
How it was run: as §1

[19] = test system: HCC2998 (Colorectal Carcinoma); test: as above
How it was run: as §1
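Throughout, for Bliss excess, mean over the matrix: after 72 h of two-drug dosing.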

| SMILES | Bliss excess [1] | combination Emax [2] | combination Emax [3] | combination Emax [4] | combination Emax [5] | combination Emax [6] | combination Emax [7] | combination Emax [8] | combination Emax [9] | combination Emax [10] | combination Emax [11] | combination Emax [12] | combination Emax [13] | combination Emax [14] | combination Emax [15] | combination Emax [16] | combination Emax [17] | combination Emax [18] | combination Emax [19] |
| --- | --- | --- | --- | --- | --- | --- | --- | --- | --- | --- | --- | --- | --- | --- | --- | --- | --- | --- | --- |
| CCc1c2c(nc3ccc(O)cc13)-c1cc3c(c(=O)n1C2)COC(=O)[C@]3(O)CC [SN-38] + CN(C)CCCOc1ccc(-c2ccc3ncc4c(c3c2)n(C2CCOCC2)c(=O)n4C)cn1 [AZD0156] (first compound max 0.3 µM, 7x7, partner max 1 µM) | -0.0094 | 0.98 | 0.961 | 0.596 | 0.361 | 0.229 | 0.742 | 0.607 | 0.803 | 0.412 | 0.529 | 0.854 | 0.607 | 1 | 0.419 | 0.843 | 0.442 | 0.487 | 0.867 |
| CC1(C)CCC(CN2CCN(c3ccc(C(=O)NS(=O)(=O)c4ccc(NCC5CCOCC5)c([N+](=O)[O-])c4)c(Oc4cnc5[nH]ccc5c4)c3)CC2)=C(c2ccc(Cl)cc2)C1 [Venetoclax] + CCN(CCO)CCCOc1ccc2c(Nc3cc(CC(=O)Nc4cccc(F)c4)[nH]n3)ncnc2c1 [AZD2811] (first compound max 1 µM, 7x7, partner max 1 µM) | 0.0005 | 0.142 | 0.618 | 0.483 | 0.323 | 0.215 | 0.157 | 0.226 | 0.55 | 0.242 | 0.375 | 0.636 | 0.178 | 0.755 | 0.158 | 0.702 | 0.226 | 0.264 | 0.121 |
| COc1cccc2c1C(=O)c1c(O)c3c(c(O)c1C2=O)C[C@@](O)(C(=O)CO)C[C@@H]3O[C@H]1C[C@H](N)[C@H](O)[C@H](C)O1 [Doxorubicin] + Cc1cc2ncnn2cc1Nc1ncc2c(n1)n(C1CCOCC1)c(=O)n2C [AZD7648] (first compound max 1 µM, 7x7, partner max 10 µM) | 0.0231 | 0.811 | 0.93 | 0.938 | 0.624 | 0.65 | 0.649 | 0.559 | 0.884 | 0.779 | 0.482 | 0.867 | 0.334 | 0.873 | 0.518 | 0.284 | 0.727 | 0.439 | 0.943 |
| CCc1c2c(nc3ccc(O)cc13)-c1cc3c(c(=O)n1C2)COC(=O)[C@]3(O)CC [SN-38] + O=C(c1cc(Cc2n[nH]c(=O)c3ccccc23)ccc1F)N1CCN(C(=O)C2CC2)CC1 [Olaparib] (first compound max 0.3 µM, 7x7, partner max 10 µM) | 0.0246 | 1 | 1 | – | 0.366 | 0.146 | 0.813 | – | 0.789 | 0.596 | 0.586 | 0.825 | – | 0.987 | 0.318 | – | 0.455 | – | – |
| COc1cccc(OCCCN)c1-c1cc(Nc2cnc(C#N)cn2)n[nH]1 [Prexasertib] + CCc1c2c(nc3ccc(O)cc13)-c1cc3c(c(=O)n1C2)COC(=O)[C@]3(O)CC [SN-38] (first compound max 1 µM, 7x7, partner max 0.3 µM) | 0.0807 | 1 | 0.973 | 0.929 | 0.756 | 0.795 | 0.807 | 0.946 | 0.796 | 0.803 | 0.671 | 0.987 | 0.815 | 0.996 | 0.455 | 0.984 | 0.889 | 0.92 | 1 |
| CC1(C)CCC(CN2CCN(c3ccc(C(=O)NS(=O)(=O)c4ccc(NCC5CCOCC5)c([N+](=O)[O-])c4)c(Oc4cnc5[nH]ccc5c4)c3)CC2)=C(c2ccc(Cl)cc2)C1 [Venetoclax] + C=CCn1c(=O)c2cnc(Nc3ccc(N4CCN(C)CC4)cc3)nc2n1-c1cccc(C(C)(C)O)n1 [AZD1775] (first compound max 1 µM, partner max 1 µM) | 0.0355 | 0.557 | 0.943 | 0.83 | 0.607 | 0.702 | 0.349 | 0.421 | 0.742 | 0.556 | 0.581 | 0.933 | 0.393 | 0.68 | 0.394 | 0.98 | 0.689 | 0.406 | 0.599 |
| CC1(C)CCC(CN2CCN(c3ccc(C(=O)NS(=O)(=O)c4ccc(NCC5CCOCC5)c([N+](=O)[O-])c4)c(Oc4cnc5[nH]ccc5c4)c3)CC2)=C(c2ccc(Cl)cc2)C1 [Venetoclax] + Cc1cc2ncnn2cc1Nc1ncc2c(n1)n(C1CCOCC1)c(=O)n2C [AZD7648] (first compound max 1 µM, 7x7, partner max 10 µM) | -0.172 | 0.158 | 0.447 | 0.424 | 0.346 | 0.167 | 0.137 | 0.344 | 0.27 | 0.257 | 0.28 | 0.416 | 0.197 | 0.703 | 0.181 | 0.284 | 0.242 | 0.244 | 0.109 |
| CC1(C)CCC(CN2CCN(c3ccc(C(=O)NS(=O)(=O)c4ccc(NCC5CCOCC5)c([N+](=O)[O-])c4)c(Oc4cnc5[nH]ccc5c4)c3)CC2)=C(c2ccc(Cl)cc2)C1 [Venetoclax] + C1CN(CCC1(C(=O)N[C@@H](CCO)C2=CC=C(C=C2)Cl)N)C3=NC=NC4=C3C=CN4 [Capivasertib] (first compound max 1 µM, 7x7, partner max 3 µM) | -0.0299 | 0.152 | 0.469 | 0.518 | 0.268 | 0.23 | 0.2 | 0.283 | 0.256 | 0.42 | 0.222 | 0.455 | 0.143 | 0.667 | 0.368 | 0.498 | 0.198 | 0.373 | 0.298 |
| CC(=O)Nc1cccc(-n2c(=O)n(C3CC3)c(=O)c3c(Nc4ccc(I)cc4F)n(C)c(=O)c(C)c32)c1 [Trametinib] + Cc1nc(-c2cn3c(n2)-c2ccc(-c4cnn(C(C)(C)C(N)=O)c4)cc2OCC3)n(C(C)C)n1 [Taselisib] (first compound max 1 µM, 7x7, partner max 10 µM) | -0.0353 | 0.588 | 0.96 | 0.958 | 0.69 | 1 | 0.411 | 0.476 | 0.83 | 0.676 | 0.618 | 0.955 | 0.705 | 0.245 | 0.748 | 1 | 0.722 | 0.722 | 0.928 |
| CC1(C)CCC(CN2CCN(c3ccc(C(=O)NS(=O)(=O)c4ccc(NCC5CCOCC5)c([N+](=O)[O-])c4)c(Oc4cnc5[nH]ccc5c4)c3)CC2)=C(c2ccc(Cl)cc2)C1 [Venetoclax] + Cn1cnc2c(F)c(Nc3ccc(Br)cc3Cl)c(C(=O)NOCCO)cc21 [Selumetinib] (first compound max 1 µM, 7x7, partner max 3 µM) | -0.0664 | 0.105 | 0.787 | 0.33 | 0.273 | 0.295 | 0.184 | 0.165 | 0.242 | 0.136 | 0.264 | 0.413 | 0.239 | 0.632 | 0.135 | 0.679 | 0.236 | 0.264 | 0.683 |
| COc1cccc(OCCCN)c1-c1cc(Nc2cnc(C#N)cn2)n[nH]1 [Prexasertib] + O=C(c1cc(Cc2n[nH]c(=O)c3ccccc23)ccc1F)N1CCN(C(=O)C2CC2)CC1 [Olaparib] (first compound max 1 µM, 7x7, partner max 10 µM) | -0.0209 | 0.937 | 0.736 | 0.533 | 0.746 | 0.542 | 0.603 | 0.46 | 0.767 | 0.439 | 0.61 | 0.926 | 0.708 | 0.943 | 0.558 | 1 | 0.956 | 0.503 | 0.957 |
| CC1(C)CCC(CN2CCN(c3ccc(C(=O)NS(=O)(=O)c4ccc(NCC5CCOCC5)c([N+](=O)[O-])c4)c(Oc4cnc5[nH]ccc5c4)c3)CC2)=C(c2ccc(Cl)cc2)C1 [Venetoclax] + COc1cc(Nc2ncc3c(n2)-c2ccc(Cl)cc2C(c2c(F)cccc2OC)=NC3)ccc1C(=O)O [Alisertib] (first compound max 1 µM, 7x7, partner max 10 µM) | -0.0051 | 0.265 | 0.474 | 0.657 | 0.473 | 0.191 | 0.268 | 0.437 | 0.606 | 0.577 | 0.359 | 0.722 | 0.319 | 0.957 | 0.384 | 0.939 | 0.275 | 0.387 | 0.225 |
| CC1(C)CCC(CN2CCN(c3ccc(C(=O)NS(=O)(=O)c4ccc(NCC5CCOCC5)c([N+](=O)[O-])c4)c(Oc4cnc5[nH]ccc5c4)c3)CC2)=C(c2ccc(Cl)cc2)C1 [Venetoclax] + C[C@@H]1COCCN1C2=NC(=NC(=C2)C3(CC3)[S@](=N)(=O)C)C4=C5C=CNC5=NC=C4 [AZD6738] (first compound max 1 µM, 7x7, partner max 10 µM) | -0.0654 | 0.459 | 0.877 | 0.703 | 0.696 | 0.588 | 0.537 | 0.6 | 0.676 | 0.491 | 0.444 | 0.852 | 0.276 | 0.952 | 0.486 | 0.947 | 0.672 | 0.587 | 0.779 |
